Measured values taken from the NIST ThermoML archive (doi:10.1021/acs.jced.6b00460).
± gives the expanded uncertainty stated by the source.

Experiment: xn = mol fraction of the nth substance listed
Details: 101 kPa, Liquid; for speed of sound: Sing-around technique in a fixed-path interferometer; for mass density: Vibrating tube method

CCCCCCCC[n+]1ccccc1.[Cl-] [N-octylpyridinium chloride] + O
Details	mass density, 308.15 K [kg/m3]	mass density, 318.15 K [kg/m3]	speed of sound, 308.15 K [m/s]	speed of sound, 318.15 K [m/s]
x2 = 0.0625	1128.68 ± 2.2	1122.77 ± 2.2	1483.2 ± 2.6	1452.1 ± 2.6
x2 = 0.1156	1128.57 ± 2.2	1122.56 ± 2.2	1484.1 ± 2.5	1453.2 ± 2.5
x2 = 0.2085	1128.29 ± 2.1	1122.18 ± 2.1	1485.3 ± 2.4	1456.7 ± 2.4
x2 = 0.2545	1128.08 ± 2.1	1121.95 ± 2.1	1486.2 ± 2.3	1458.4 ± 2.3
x2 = 0.306	1127.76 ± 2.1	1121.63 ± 2.1	1488 ± 2.3	1461.8 ± 2.3
x2 = 0.4127	1126.71 ± 2	1120.54 ± 2	1491.7 ± 2.1	1464.8 ± 2.1
x2 = 0.4534	1126.09 ± 2	1119.9 ± 2	1493.7 ± 2.1	1466.1 ± 2.1
x2 = 0.4995	1125.19 ± 2	1118.95 ± 2	1495 ± 2.1	1469.4 ± 2.1
x2 = 0.6103	1121.68 ± 2	1115.24 ± 2	1499.8 ± 2	1473.8 ± 2
x2 = 0.6508	1119.68 ± 2	1113.12 ± 2	1501.8 ± 1.9	1477.2 ± 1.9
x2 = 0.6962	1116.7 ± 2	1110.01 ± 2	1504.9 ± 1.9	1481.8 ± 1.9
x2 = 0.7542	1111.3 ± 2	1104.41 ± 2	1507.1 ± 1.9	1487.1 ± 1.9
x2 = 0.8086	1103.65 ± 2	1096.63 ± 2	1509.4 ± 1.8	1493.7 ± 1.8
x2 = 0.8512	1094.75 ± 2	1087.7 ± 2	1511.3 ± 1.8	1497.9 ± 1.8
x2 = 0.9009	1078.75 ± 2	1071.93 ± 2	1513.2 ± 1.8	1505.5 ± 1.8
x2 = 0.9485	1052.47 ± 2	1046.38 ± 2	1515.5 ± 1.8	1515.2 ± 1.8
